Source: patent US10285981B2, “Compositions and methods for treating amyotrophic lateral sclerosis in responders” (KNOPP BIOSCIENCES LLC, priority 2013, dated 2019)
Where two headings read alike, the source gives them in different places.

How the values were obtained:
[1] = system: subjects with ALS; details: for decline in levels of serum creatinine: Part One; for mean decline in serum creatinine: Week 28
Description: Therefore, the Part 2, Week 28 visit was pre-specified as the primary time-point for all Part 2 data analyses.

[2] = system: subjects with ALS
Description: Subjects with possible, probable, probable laboratory-supported, or definite ALS as defined by the El Escorial criteria who had ALS symptoms for ≤24 months at the time of entry into the study and a slow vital capacity of ≥65% of predicted were eligible to participate in this study. This study is described in more detail in the Examples.
Eligible subjects were between 18-80 years of age with a clinical diagnosis of possible, laboratory-supported probable, probable, or definite ALS, either familial or sporadic, in accordance with the revised El Escorial criteria. Subjects were required to have had onset of first ALS symptoms ≤24 months before Day 1 and an upright vital capacity of ≥65% of predicted value for age, height, and gender at screening. […] Subjects had to be able to swallow oral medications on Day 1 (FIG. 1).
Clinic visits and telephone calls/home visits may have occurred on alternating months. The primary efficacy analysis was a Combined Assessment of Function and Survival (CAFS), based on changes from baseline in the ALS Functional Rating Score-Revised (ALSFRS-R) scores or time to death using follow-up data through 12 months. […] Efficacy data was evaluated using 2-sided tests with α=0.05 for the primary and secondary endpoints. Adverse events and other safety indices were monitored throughout the study.
The primary endpoint of the method of Example 2 was the Combined Assessment of Function and Survival (CAFS), a joint-rank test that is a valid statistical approach for analyzing functional outcomes adjusted for mortality. The CAFS ranks subjects' outcomes based on both time to death and change from baseline in ALSFRS-R score using follow-up data through 12 months. CAFS is predicated on the comparison of outcomes of each subject to all other subjects in the study. A higher rank is assigned to subjects who survive versus those who die, and the change from baseline in the ALSFRS-R is used to rank each survivor. A higher CAFS ranking indicates a better global clinical outcome.
The ALSFRS-R score, VC, and McGill QoL-SIS scores were summarized by treatment group with the rate of change estimate derived from a linear mixed-effects model. Linear decline of the ALSFRS-R score over time has been shown previously. […] A mixed-model analysis was used to fit a model that included time, treatment group, and the interaction between time and treatment group simultaneously. The estimated coefficient of time, the slope, or rate of change, for each treatment group was used to test for differences between the treatment groups. Coefficient of time estimate along with its standard error was reported.

[3] = system: dopamine receptors
[4] = system: subjects with ALS; remark: listed apart in the source
Description: Response is defined according to two criteria:
This analysis examined subgroup definitions based on both single and dual attribute criteria, and evaluated the performance of each subgroup with respect the two criteria above. To facilitate ranking of subgroups, we have defined a scoring metric which aggregates these two-dimensional scores into a single scalar called “score” in our report files. Larger scores are better: scores increase when mortality rates decrease, and when ALSFRS-R changes from baseline become more positive (i.e. score decreases are reduced). This scoring scheme is somewhat arbitrary; it merely serves to guide our maximization process and provide convenient rankings of subgroup quality. The definition of the score could certainly be altered to reflect different priorities on treatment effects with respect to mortality or disease progression. For this reason, we provide a complete spreadsheet of results, which can be re-sorted and re-ordered according to arbitrary balancing criteria.
1. Mortality for patients is defined by the value of the “end_status_study” field. Patients are deemed dead if and only if the value of this field is “DEATH”; any other value is interpreted as survival;
2. Disease symptom progression is measured in terms of the change in total ALSFRS-R score from baseline, as reported in the “change from baseline” attribute of each patient. Specifically, we take the value of “change from baseline” that is reported at the final measurement time for each patient.;
4. We impose minimum subgroup size filters on our results to exclude promising signals which arise due to sampling artifacts, or which would be too narrow for consideration in future studies. Analyses were run for minimum group sizes of both 50 patients (data not shown) and 100 patients (i.e. for a cutoff of N, we require at least N patients in that subgroup for both the treated and untreated groups).

[5] = system: dogs; details: single oral dose, and above; cited from earlier work
[6] = system: rodents; details: single oral dose, and above; cited from earlier work
[7] = system: humans; details: cited from earlier work
[8] = system: rodents; details: approximately
[9] = system: monkeys; details: single oral dose; cited from earlier work
[10] = system: ALS subjects; details: human, in vivo
[11] = system: ALS subjects; details: even after prolonged treatment; cited from earlier work
[12] = system: subjects with ALS; details: larger Phase III study; cited from earlier work
[13] = high-creatinine group, through 12 months

CCCN[C@@H]1CCc2nc(N)sc2C1 [dexpramipexole, (6R)-2-amino-4,5,6,7-tetrahydro-6-(propylamino)-benzothiazole]
decline in levels of serum creatinine ([1]; 50 mg group): 0.05 | decline in levels of serum creatinine ([1]; 150 mg group): 0.06 | decline in levels of serum creatinine ([1]; 300 mg group): 0.0 | combined assessment of function and survival (CAFS) ([1]; Part Two, 300 mg daily dose, p=0.040): significantly reduced reduction | mean decline in serum creatinine ([1]; Part Two, daily dose 50 mg): −0.12 | mean decline in serum creatinine ([1]; Part Two, daily dose 300 mg): zero | ALSFRS-R score change vs placebo group (exploratory analysis with covariate adjustment) ([2]; 300 mg group, Month 18): significant improvement | ALSFRS-R subdomain: behaviors associated with bulbar function, decline over baseline ([2]; 300 mg/day): less dramatic decline | ALSFRS-R subdomain: behaviors associated with fine motor skills ([2]; 300 mg/day): dose dependent improvement over baseline | combined assessment of function and survival (CAFS), least square means ([2]; high-creatinine group (baseline serum creatinine > about 72 μmol/L), 150 mg twice daily, through 12 months): 184.86 | slope of decline on the ALS Functional Rating Scale (Revised), least square means ([2]; high-creatinine group, 150 mg twice daily, through 12 months): −0.925 | ALSFRS-R slope of decline, improvement in least square means between treatment and placebo [2, 13]: 18% | CAFS improvement in least square means between treatment and placebo [2, 13]: 19% | rate of mortality (Kaplan-Meier analysis) ([2]; high-creatinine group, treatment group at 12 months): 10.3% | functional affinity difference between pramipexole and dexpramipexole for dopamine receptors [3]: 10,000-20,000 folds | relative change in the mean ALSFRS-R change from baseline, treated vs untreated ([4]; definite diagnosis subgroup): −8.3% | abs_mort_rate_change: absolute difference in mortality rate, treated vs untreated ([4]; in vivo): −22.6% | mort rate change: relative change in mortality rate, treated vs untreated ([4]; in vivo): −67.9% | mortality rate lower for treated patients ([4]; in vivo): 22.6 percentage points | score: combined score of mortality and ALSFRS-R treatment effects ([4]; in vivo): 0.343 | trtd_mort_rate: mortality rate of treated patients ([4]; in vivo): 10.7% | relative change in the mean ALSFRS-R change from baseline, treated vs untreated ([4]; subgroup mean_pr_interval>184.5, minimum group size 100): −20.5% | abs_alsfrs_change: absolute difference in mean ALSFRS-R total scores, treated vs untreated ([4]; subgroup min_pr_interval>195): 5.623 points | alsfrs change: relative change in mean ALSFRS-R change from baseline, treated vs untreated ([4]; subgroup min_pr_interval>195, minimum group size 50): −26.6%

CCCN[C@H]1CCc2nc(N)sc2C1 [pramipexole, (6S)-2-amino-4,5,6,7-tetrahydro-6-(propylamino)benzothiazole]
dose at which vomiting occurred [5]: ≥ 0.0007 milligrams per kilogram | dose at which death occurred [6]: 70-105 milligrams per kilogram | maximally tolerated dose for humans ([7]; Boehringer Ingelheim product insert for Mirapex): 4.5 milligrams per day | initial single dose not tolerated ([7]; human subjects): greater than 0.20 milligrams | dose shown to cause somnolence ([7]; humans, as low as): 1.5 milligrams | human dose equivalent to the rodent lethal dose, 70 kilogram individual [8]: 500-850 milligrams | dose at which major excitation was displayed [9]: 3.5 milligrams per kilogram

Nc1nc2ccc(OC(F)(F)F)cc2s1 [riluzole]
headaches reported, subjects receiving riluzole vs those not receiving riluzole [10]: four times as many subjects | effect on ALSFRS-R score [11]: has not demonstrated any effect

CC(=O)N1N=C(c2ccc(N)cc2)c2cc3c(cc2C[C@H]1C)OCO3 [talampanel]
treatment effects in ALS [12]: failed to show any treatment effects
